Literature values as cited in patent US20070021304A1, “Non-salt glyphosate herbicide composition and method for preparing the same” (Sinon Corporation, priority 2005, published 2007).

Settings: pH 1.9, 20° C.

O=C(O)CNCP(=O)(O)O [Glyphosate]
water solubility: approximately 10.5 g/L
